Structures are written as SMILES.

For the experiment, the system named is serotonin reuptake (5HT), rat cerebral cortex synaptosomes. Description: Inhibition of synaptosomal reuptake of 3H-serotonin (3H-5HT) in cortical synaptosomes. The experiment is classed as biochemical, rat (male Sprague-Dawley). As to conditions: 37° C., 5 min, 50 nM 3H-5HT, read-out: IC50 (nM) 5HT (concentration needed to inhibit the uptake of 3H-5HT by 50%). Here is the method:
This general procedure is described in Wong et al., Drug Development Research, 6, 397-403 (1985).
Male Sprague-Dawley rats (110-150 gm) from Harlan Industries (Cumberland, Ind.) were fed Purina Chow ad libitum for at least three days before being used in the study. Rats were killed by decapitation. Whole brains were removed and dissected. Cerebral cortex was homogenized in 9 volumes of a medium containing 0.32 M sucrose and 10 mM glucose. Crude synaptosomal preparations were isolated after differential centrifugation at 1,000 g for 10 min. and 17,000 g for 28 min. The final pellets were suspended in the same medium and kept in ice until use within the same day.
Synaptosomal reuptake of ^3 H-serotonin (^3 H-5-hydroxytryptamine, ^3 H-5HT) was determined as follows: Cortical synaptosomes (equivalent to 1 mg protein) were incubated at 37° C. for 5 min. in 1 mL of Krebs-bicarbonate medium containing also 10 mM glucose, 0.1 mM iproniazide, 1 mM ascorbic acid, 0.17 mM EDTA and 50 nM ^3 H-5HT. The reaction mixture was immediately diluted with 2 mL of ice chilled Krebs-bicarbonate buffer and filtered under vacuum with a cell harvester (Brandel, Gaithersburg, Md.). Filters were rinsed twice with approximately 5 mL ice chilled 0.9% saline and were transferred to a counting vial containing 10 mL of scintillation fluid (PCS, Amersham, Arlington Heights, Ill.). Radioactivity was measured by a liquid scintillation spectrophotometer. Accumulation of ^3 H-5HT at 4° C. represented the background and was subtracted from all samples.
`CN1C[C@@H]2CN(C3CCc4ccccc4C3)C[C@@H]2C1` (relative stereo) [Example 1, cis-hexahydro-2-methyl-5-(1,2,3,4-tetrahydro-2-naphthalenyl) pyrrolo<3,4-c>pyrrole dimaleate]: the IC50 turned out to be 122 nM.

On to `CN1C[C@@H]2CN(C3CCc4cccc(Cl)c4C3)C[C@@H]2C1` (relative stereo) [Example 2, cis-hexahydro-2-methyl-5-(1,2,3,4-tetrahydro-8-chloro-2-naphthalenyl)pyrrolo<3,4-c>pyrrole dimaleate], for which the IC50 stood at 42 nM.

On to `COc1cccc2c1CC(N1C[C@H]3CN(C)C[C@H]3C1)CC2` (relative stereo) [Example 3, cis-hexahydro-2-methyl-5-(1,2,3,4-tetrahydro-8-methoxy-2-naphthalenyl)pyrrolo<3,4-c>pyrrole dimaleate], for which the IC50 is 20 nM.

For the compound `CN1C[C@@H]2CN(C3CCc4cccc(O)c4C3)C[C@@H]2C1` (relative stereo) [Example 4, cis-hexahydro-2-methyl-5-(1,2,3,4-tetrahydro-8-hydroxy-2-naphthalenyl)pyrrolo<3,4-c>pyrrole dimaleate], the IC50 amounted to 5.4 nM.

As for `COc1ccc(Br)c2c1CC(N1C[C@H]3CN(C)C[C@H]3C1)CC2` (relative stereo) [Example 5, cis-hexahydro-2-methyl-5-(1,2,3,4-tetrahydro-5-bromo-8-methoxy-2-naphthalenyl)pyrrolo<3,4-c>pyrrole dimaleate], the IC50 worked out at 38 nM.

On to `COc1cccc2c1CC(N1C[C@H]3CN(Cc4ccccc4)C[C@H]3C1)CC2` (relative stereo) [Example 6, cis-hexahydro-2-benzyl-5-(1,2,3,4-tetrahydro-8-methoxy-2-naphthalenyl)pyrrolo<3,4-c>pyrrole dimaleate], for which the IC50 turned out to be 60 nM.

As for `COc1cccc2c1CC(N1C[C@H]3CNC[C@H]3C1)CC2` (relative stereo) [Example 7, cis-hexahydro-5-(1,2,3,4-tetrahydro-8-methoxy-2-naphthalenyl)pyrrolo<3,4-c>pyrrole dimaleate], the IC50 was 30 nM.

As to `COc1ccc(Br)c2c1CC(N1C[C@H]3CNC[C@H]3C1)CC2` (relative stereo) [Example 8, cis-hexahydro-5-(1,2,3,4-tetrahydro-5-bromo-8-methoxy-2-naphthalenyl)pyrrolo<3,4-c>pyrrole dimaleate], the IC50 amounted to 50 nM.

In the case of `Cc1cccc2c1CC(N1C[C@H]3CN(C)C[C@H]3C1)CC2` (relative stereo) [Example 9, cis-hexahydro-2-methyl-5-(1,2,3,4-tetrahydro-8-methyl-2-naphthalenyl)pyrrolo<3,4-c>pyrrole dimaleate], the IC50 came out at 293 nM.

Turning to `Cc1ccc(Br)c2c1CC(N1C[C@H]3CN(C)C[C@H]3C1)CC2` (relative stereo) [Example 10, cis-hexahydro-2-methyl-5-(1,2,3,4-tetrahydro-5-bromo-8-methyl-2-naphthalenyl)pyrrolo<3,4-c>pyrrole dimaleate], the IC50 is 413 nM.

`COc1cccc2c1[C@@H](C)[C@@H](N1C[C@H]3CN(C)C[C@H]3C1)CC2` (relative stereo) [Example 11, cis-hexahydro-2-methyl-5-(cis-1-methyl-1,2,3,4-tetrahydro-8-methoxy-2-naphthalenyl)pyrrolo<3,4-c>pyrrole dimaleate]: the IC50 turned out to be 65 nM.

Turning to `COc1cccc2c1[C@@H](C)[C@@H](N1C[C@H]3CNC[C@H]3C1)CC2` (relative stereo) [Example 12, cis-hexahydro-5-(cis-1-methyl-1,2,3,4-tetrahydro-8-methoxy-2-naphthalenyl)pyrrolo<3,4-c>pyrrole dimaleate], the IC50 stood at 340 nM.

The values above are taken from patent US5457121A, “Cis-hexahydro-5-(1,2,3,4-tetrahydro-2-naphthalenyl)pyrrolo<3,4-c> pyrroles as inhibitors of serotonin reuptake” (Eli Lilly and Company, priority 1994, dated 1995).
